According to paper PMC2883770 (Journal of natural products, 2009):

How the values were obtained:
[1] = system: HT-29 human colon cancer cells; experiment: Cytotoxicity assay against HT-29 cells; type: cell-based
[2] = system: MCF-7 human breast cancer cells; experiment: Cytotoxicity assay against MCF-7 cells; type: cell-based
[3] = system: HT-29 cells; experiment: Mitochondrial transmembrane potential; type: cell-based, human; conditions: 2 h treatment, JC-1 dye

CC(=O)O[C@@H]([C@H]1C[C@@H]1C(=O)C(C)OC(=O)/C=C/c1ccc(O)cc1)[C@H]1CC=CC(=O)O1 (stereo partly drawn) [Compound 1, Brevipolide A]
ED50 against HT-29 cells [1]: 5.8 µM
ED50 against MCF-7 cells [2]: > 10 µM

CC(=O)O[C@@H]([C@H]1C[C@@H]1C(=O)C(C)OC(=O)/C=C\c1ccc(O)cc1)[C@H]1CC=CC(=O)O1 (stereo partly drawn) [Compound 2, Brevipolide B]
ED50 against HT-29 cells [1]: 6.1 µM
ED50 against MCF-7 cells [2]: 6.1 µM

CC(OC(=O)/C=C/c1ccc(O)c(O)c1)C(=O)[C@H]1C[C@@H]1[C@H](O)[C@H]1CC=CC(=O)O1 (stereo partly drawn) [Compound 3, Brevipolide C]
ED50 in mitochondrial transmembrane potential assay [3]: 0.0085 µM

CC(OC(=O)/C=C\c1ccc(O)cc1)C(=O)[C@H]1C[C@@H]1[C@H](O)[C@H]1CC=CC(=O)O1 (stereo partly drawn) [Compound 6, Brevipolide F]
ED50 against HT-29 cells [1]: 7.5 µM
ED50 against MCF-7 cells [2]: 6.7 µM

COc1ccc(-c2oc3cc(OC)c(O)c(O)c3c(=O)c2OC)cc1O [Compound 8, 5,6,3′-trihydroxy-3,7,4′-trimethoxyflavone]
ED50 against HT-29 cells [1]: 3.6 µM
ED50 in mitochondrial transmembrane potential assay [3]: 0.31 µM
